In ChEMBL document CHEMBL3885881, “DrugMatrix”:

Species on record: Rattus norvegicus
Assay: DrugMatrix - Regimen: Daily Repeat
Type: toxicity, organism-based, Sprague-Dawley
Set-up: regimen Daily Repeat, gender Male, age 6-8 weeks
Details: in vivo, po, route oral GAVAGE, vehicle 100 % WATER; for ABSOLUTE BASOPHIL / ABSOLUTE EOSINOPHIL / ABSOLUTE LYMPHOCYTE / ABSOLUTE MONOCYTE / ABSOLUTE SEGMENTED NEUTROPHIL / BASOPHIL / EOSINOPHIL / ERYTHROCYTE COUNT / HEMATOCRIT / HEMOGLOBIN / LEUKOCYTE COUNT / LYMPHOCYTE / MEAN CORPUSCULAR HEMOGLOBIN / MEAN CORPUSCULAR HEMOGLOBIN CONCENTRATION / MEAN CORPUSCULAR VOLUME / MONOCYTE / NEUTROPHIL / NUCLEATED RED BLOOD CELLS / PLATELET COUNT: tissue Blood; for ALANINE AMINOTRANSFERASE / ALBUMIN / ALKALINE PHOSPHATASE / ASPARTATE AMINOTRANSFERASE / BLOOD UREA NITROGEN / CARBON DIOXIDE / CHLORIDE / CHOLESTEROL / CREATINE PHOSPHOKINASE / CREATININE / GLUCOSE / LACTATE DEHYDROGENASE / LIPASE / PHOSPHORUS / POTASSIUM / SODIUM / TOTAL BILIRUBIN / TOTAL PROTEIN / URIC ACID: tissue Plasma
[1] = 14 mg/kg, 72 h, dose level Low, time 3 day
[2] = 14 mg/kg, 120 h, dose level Low, time 5 day
[3] = 1500 mg/kg, 72 h, dose level High, time 3 day
[4] = 1500 mg/kg, 120 h, dose level High, time 5 day

In the case of `CN(C)[C@@H]1C(O)=C(C(N)=O)C(=O)[C@@]2(O)C(O)=C3C(=O)c4c(O)cccc4[C@@](C)(O)[C@H]3[C@H](O)[C@@H]12` [OXYTETRACYCLINE], the “ABSOLUTE BASOPHIL” value [1] is reported as 0 CELLS/uL, the “ABSOLUTE EOSINOPHIL” value [1] is reported as 0 CELLS/uL and the “ABSOLUTE LYMPHOCYTE” value [1] is reported as 14072 CELLS/uL. For the same compound, the “ABSOLUTE MONOCYTE” value [1] was 56.33 CELLS/uL, the “ABSOLUTE SEGMENTED NEUTROPHIL” value [1] was 1938.33 CELLS/uL and the BASOPHIL [1] was 0%. For the same compound, the EOSINOPHIL [1] was 0%, the “ERYTHROCYTE COUNT” value [1] was 5.7 x10E6/uL and the HEMATOCRIT [1] was 36.73%. The HEMOGLOBIN [1] was 14.4 G/DL, the “LEUKOCYTE COUNT” value [1] was 16.07 x10E3/uL and the LYMPHOCYTE [1] was 87.67%. The “MEAN CORPUSCULAR HEMOGLOBIN” value [1] was 25.27 pg, the “MEAN CORPUSCULAR HEMOGLOBIN CONCENTRATION” value [1] was 39.27 G/DL and the “MEAN CORPUSCULAR VOLUME” value [1] was 64.4 fL. The MONOCYTE [1] was 0.33%, the NEUTROPHIL [1] was 12% and the “NUCLEATED RED BLOOD CELLS” value [1] was 0.33 /100WBC. For the same compound, the “PLATELET COUNT” value [1] was 1430 x10E3/uL, the “ALANINE AMINOTRANSFERASE” value [1] was 53.67 u/L and the ALBUMIN [1] was 4.57 G/DL. For the same compound, the “ALKALINE PHOSPHATASE” value [1] was 372 u/L, the “ASPARTATE AMINOTRANSFERASE” value [1] was 89.33 u/L and the “BLOOD UREA NITROGEN” value [1] was 16.33 mg/dL. For the same compound, the “CARBON DIOXIDE” value [1] was 26.67 mmol/L, the CHLORIDE [1] was 103.67 MEQ/L and the CHOLESTEROL [1] was 85.33 mg/dL. The “CREATINE PHOSPHOKINASE” value [1] was 211.67 u/L, the CREATININE [1] was 0.27 mg/dL and the GLUCOSE [1] was 165 mg/dL. For the same compound, the “LACTATE DEHYDROGENASE” value [1] was 160 u/L, the LIPASE [1] was 10 u/L and the PHOSPHORUS [1] was 13.07 mg/dL. The POTASSIUM [1] was 7.37 MEQ/L, the SODIUM [1] was 146.77 MEQ/L and the “TOTAL BILIRUBIN” value [1] was 0.23 mg/dL. The “TOTAL PROTEIN” value [1] was 6.17 G/DL, the “URIC ACID” value [1] was 1.9 mg/dL and the “ABSOLUTE BASOPHIL” value [2] was 0 CELLS/uL. For the same compound, the “ABSOLUTE EOSINOPHIL” value [2] was 0 CELLS/uL, the “ABSOLUTE LYMPHOCYTE” value [2] was 12168.33 CELLS/uL and the “ABSOLUTE MONOCYTE” value [2] was 40 CELLS/uL. For the same compound, the “ABSOLUTE SEGMENTED NEUTROPHIL” value [2] was 991.67 CELLS/uL, the BASOPHIL [2] was 0% and the EOSINOPHIL [2] was 0%. For the same compound, the “ERYTHROCYTE COUNT” value [2] was 5.46 x10E6/uL, the HEMATOCRIT [2] was 35.43% and the HEMOGLOBIN [2] was 14.23 G/DL. The “LEUKOCYTE COUNT” value [2] was 13.2 x10E3/uL, the LYMPHOCYTE [2] was 92% and the “MEAN CORPUSCULAR HEMOGLOBIN” value [2] was 26.03 pg. For the same compound, the “MEAN CORPUSCULAR HEMOGLOBIN CONCENTRATION” value [2] was 40.13 G/DL, the “MEAN CORPUSCULAR VOLUME” value [2] was 64.83 fL and the MONOCYTE [2] was 0.33%. The NEUTROPHIL [2] was 7.67%, the “NUCLEATED RED BLOOD CELLS” value [2] was 0 /100WBC and the “PLATELET COUNT” value [2] was 1202.33 x10E3/uL. The “ALANINE AMINOTRANSFERASE” value [2] was 48.67 u/L, the ALBUMIN [2] was 4.47 G/DL and the “ALKALINE PHOSPHATASE” value [2] was 399.33 u/L. The “ASPARTATE AMINOTRANSFERASE” value [2] was 88 u/L, the “BLOOD UREA NITROGEN” value [2] was 16.67 mg/dL and the “CARBON DIOXIDE” value [2] was 26.33 mmol/L. For the same compound, the CHLORIDE [2] was 102 MEQ/L, the CHOLESTEROL [2] was 69.33 mg/dL and the “CREATINE PHOSPHOKINASE” value [2] was 216.67 u/L. For the same compound, the CREATININE [2] was 0.2 mg/dL, the GLUCOSE [2] was 150.33 mg/dL and the “LACTATE DEHYDROGENASE” value [2] was 200.67 u/L. It also gave an LIPASE [2] of 9 u/L, a PHOSPHORUS [2] of 14.23 mg/dL and a POTASSIUM [2] of 7.61 MEQ/L. The SODIUM [2] was 147.57 MEQ/L, the “TOTAL BILIRUBIN” value [2] was 0.17 mg/dL and the “TOTAL PROTEIN” value [2] was 6.43 G/DL. For the same compound, the “URIC ACID” value [2] was 2.1 mg/dL, the “ABSOLUTE BASOPHIL” value [3] was 0 CELLS/uL and the “ABSOLUTE EOSINOPHIL” value [3] was 0 CELLS/uL. The “ABSOLUTE LYMPHOCYTE” value [3] was 13408.67 CELLS/uL, the “ABSOLUTE MONOCYTE” value [3] was 33.33 CELLS/uL and the “ABSOLUTE SEGMENTED NEUTROPHIL” value [3] was 1491.33 CELLS/uL. The BASOPHIL [3] was 0%, the EOSINOPHIL [3] was 0% and the “ERYTHROCYTE COUNT” value [3] was 5.4 x10E6/uL. For the same compound, the HEMATOCRIT [3] was 33.33%, the HEMOGLOBIN [3] was 13.33 G/DL and the “LEUKOCYTE COUNT” value [3] was 14.93 x10E3/uL. The LYMPHOCYTE [3] was 90.67%, the “MEAN CORPUSCULAR HEMOGLOBIN” value [3] was 24.7 pg and the “MEAN CORPUSCULAR HEMOGLOBIN CONCENTRATION” value [3] was 40.03 G/DL. The “MEAN CORPUSCULAR VOLUME” value [3] was 61.67 fL, the MONOCYTE [3] was 0.33% and the NEUTROPHIL [3] was 9%. The “NUCLEATED RED BLOOD CELLS” value [3] was 0 /100WBC, the “PLATELET COUNT” value [3] was 1276 x10E3/uL and the “ALANINE AMINOTRANSFERASE” value [3] was 67 u/L. For the same compound, the ALBUMIN [3] was 4.17 G/DL, the “ALKALINE PHOSPHATASE” value [3] was 287.67 u/L and the “ASPARTATE AMINOTRANSFERASE” value [3] was 90.33 u/L. The “BLOOD UREA NITROGEN” value [3] was 14 mg/dL, the “CARBON DIOXIDE” value [3] was 30 mmol/L and the CHLORIDE [3] was 103 MEQ/L. For the same compound, the CHOLESTEROL [3] was 93 mg/dL, the “CREATINE PHOSPHOKINASE” value [3] was 208.33 u/L and the CREATININE [3] was 0.2 mg/dL. The GLUCOSE [3] was 142.33 mg/dL, the “LACTATE DEHYDROGENASE” value [3] was 267.67 u/L and the LIPASE [3] was 10 u/L. For the same compound, the PHOSPHORUS [3] was 13.33 mg/dL, the POTASSIUM [3] was 6.65 MEQ/L and the SODIUM [3] was 147.53 MEQ/L. The “TOTAL BILIRUBIN” value [3] was 0.1 mg/dL, the “TOTAL PROTEIN” value [3] was 5.63 G/DL and the “URIC ACID” value [3] was 1.47 mg/dL. The “ABSOLUTE BASOPHIL” value [4] was 0 CELLS/uL, the “ABSOLUTE EOSINOPHIL” value [4] was 0 CELLS/uL and the “ABSOLUTE LYMPHOCYTE” value [4] was 10152.67 CELLS/uL. For the same compound, the “ABSOLUTE MONOCYTE” value [4] was 25.33 CELLS/uL, the “ABSOLUTE SEGMENTED NEUTROPHIL” value [4] was 755.33 CELLS/uL and the BASOPHIL [4] was 0%. The EOSINOPHIL [4] was 0%, the “ERYTHROCYTE COUNT” value [4] was 5.33 x10E6/uL and the HEMATOCRIT [4] was 34.37%. For the same compound, the HEMOGLOBIN [4] was 13.93 G/DL, the “LEUKOCYTE COUNT” value [4] was 10.93 x10E3/uL and the LYMPHOCYTE [4] was 92.33%. For the same compound, the “MEAN CORPUSCULAR HEMOGLOBIN” value [4] was 26.17 pg, the “MEAN CORPUSCULAR HEMOGLOBIN CONCENTRATION” value [4] was 40.53 G/DL and the “MEAN CORPUSCULAR VOLUME” value [4] was 64.53 fL. The MONOCYTE [4] was 0.33%, the NEUTROPHIL [4] was 7.33% and the “NUCLEATED RED BLOOD CELLS” value [4] was 0.33 /100WBC. The “PLATELET COUNT” value [4] was 1197.33 x10E3/uL, the “ALANINE AMINOTRANSFERASE” value [4] was 58 u/L and the ALBUMIN [4] was 4.37 G/DL. For the same compound, the “ALKALINE PHOSPHATASE” value [4] was 321.33 u/L, the “ASPARTATE AMINOTRANSFERASE” value [4] was 83.33 u/L and the “BLOOD UREA NITROGEN” value [4] was 16 mg/dL. The “CARBON DIOXIDE” value [4] was 26.33 mmol/L, the CHLORIDE [4] was 100.33 MEQ/L and the CHOLESTEROL [4] was 75.67 mg/dL. For the same compound, the “CREATINE PHOSPHOKINASE” value [4] was 222.33 u/L, the CREATININE [4] was 0.32 mg/dL and the GLUCOSE [4] was 138 mg/dL. For the same compound, the “LACTATE DEHYDROGENASE” value [4] was 303 u/L, the LIPASE [4] was 11 u/L and the PHOSPHORUS [4] was 13.23 mg/dL. For the same compound, the POTASSIUM [4] was 6.84 MEQ/L, the SODIUM [4] was 146.1 MEQ/L and the “TOTAL BILIRUBIN” value [4] was 0.1 mg/dL. For the same compound, the “TOTAL PROTEIN” value [4] was 6.3 G/DL and the “URIC ACID” value [4] was 1.47 mg/dL.
